Like-named read-outs stand apart in the source and are kept apart here.
Molecular target: PHGDH (Homo sapiens (Human), UniProt O43175)
Assay: 3-Phosphoglycerate Dehydrogenase (PHGDH) Fluorescence Intensity Assay, run at two NAD/3-PG ratios: PHGDH_HIGH_NAD/3-PG (250 μM NAD/500 μM 3-PG) and PHGDH_500_NAD/3-PG (500 μM NAD/500 μM 3-PG)
Type: biochemical
[1] = 250 μM NAD/500 μM 3-PG, read-out: IC50 (PHGDH_HIGH_NAD/3-PG)
[2] = 500 μM NAD/500 μM 3-PG, read-out: IC50 (PHGDH_500_NAD/3-PG)

Chain of PHGDH (O43175 2-533 limits assumed): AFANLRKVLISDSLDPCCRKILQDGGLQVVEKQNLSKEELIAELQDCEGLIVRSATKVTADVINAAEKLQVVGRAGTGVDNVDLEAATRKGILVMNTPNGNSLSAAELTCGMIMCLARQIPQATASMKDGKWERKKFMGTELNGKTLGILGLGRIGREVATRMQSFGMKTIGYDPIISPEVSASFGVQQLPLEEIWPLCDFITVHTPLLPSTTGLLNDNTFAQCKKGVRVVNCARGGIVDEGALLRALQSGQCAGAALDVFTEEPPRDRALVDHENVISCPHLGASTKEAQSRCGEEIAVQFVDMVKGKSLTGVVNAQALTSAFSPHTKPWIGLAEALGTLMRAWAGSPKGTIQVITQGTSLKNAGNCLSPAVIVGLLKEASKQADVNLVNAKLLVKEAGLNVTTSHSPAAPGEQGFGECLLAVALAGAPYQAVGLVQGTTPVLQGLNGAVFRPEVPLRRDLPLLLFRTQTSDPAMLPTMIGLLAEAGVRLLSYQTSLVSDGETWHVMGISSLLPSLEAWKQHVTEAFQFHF

Compound	IC50 [1] [nM]	IC50 [2] [nM]
COC(=O)C(C)(C)S(=O)(=O)c1ccc([C@@H](CO)NC(=O)c2cc(-c3ccc(F)cc3)nn2C)cc1 [Example 06-008, methyl 2-{4-[(1S)-1-{[3-(4-fluorophenyl)-1-methyl-1H-pyrazol-5-yl]formamido}-2-hydroxyethyl]benzenesulfonyl}-2-methylpropanoate]	8340	–
CCC(CC)(C(=O)O)S(=O)(=O)c1ccc([C@@H](C)NC(=O)c2cc3c(Cl)cc(C)cc3n2C)cc1 [Example 07-001, 2-{4-[(1R)-1-[(4-chloro-1,6-dimethyl-1H-indol-2-yl)formamido]ethyl]benzenesulfonyl}-2-ethylbutanoic acid]	10	14
Cc1cc(Cl)c2cc(C(=O)N[C@H](C)c3ccc(S(=O)(=O)C(C)C(=O)O)cc3)n(C)c2c1 (stereo partly drawn) [Example 07-003, 2-{4-[(1R)-1-[(4-chloro-1,6-dimethyl-1H-indol-2-yl)formamido]ethyl]benzenesulfonyl}propanoic acid]	8	–
Cc1cc(Cl)c2cc(C(=O)N[C@H](C)c3ccc(S(=O)(=O)C4(C(=O)O)CCCC4)cc3)n(C)c2c1 [Example 07-004, 1-{4-[(1R)-1-[(4-chloro-1,6-dimethyl-1H-indol-2-yl)formamido]ethyl]benzenesulfonyl}cyclopentane-1-carboxylic acid]	6	–
C[C@@H](NC(=O)c1cc2cc(Cl)ccc2n1C)c1ccc(S(=O)(=O)[C@@H](C)C(=O)O)cc1 [Example 07-006, (2S)-2-{4-[(1R)-1-[(5-chloro-1-methyl-1H-indol-2-yl)formamido]ethyl]benzenesulfonyl}propanoic acid]	238	–
C[C@@H](NC(=O)c1cc2cc(Cl)ccc2n1C)c1ccc(S(=O)(=O)C(C)(C)C(=O)O)cc1 [Example 07-007, 2-{4-[(1R)-1-[(5-chloro-1-methyl-1H-indol-2-yl)formamido]ethyl]benzenesulfonyl}-2-methylpropanoic acid]	209	–
C[C@H](C(=O)O)S(=O)(=O)c1ccc([C@@H](C)NC(=O)c2cc3cc(Cl)ccc3n2C)cc1 [Example 07-008, (2R)-2-{4-[(1R)-1-[(5-chloro-1-methyl-1H-indol-2-yl)formamido]ethyl]benzenesulfonyl}propanoic acid]	139	–
CC(C(=O)O)S(=O)(=O)c1ccc([C@@H](C)NC(=O)c2cc3cc(Cl)ccc3n2C)cc1 (stereo partly drawn) [Example 07-009, 2-{4-[(1R)-1-[(5-chloro-1-methyl-1H-indol-2-yl)formamido]ethyl]benzenesulfonyl}propanoic acid]	190	–
COCCC(C(=O)O)S(=O)(=O)c1ccc([C@@H](C)NC(=O)c2cc3c(Cl)cc(C)cc3n2C)cc1 (stereo partly drawn) [Example 07-010, 2-{4-[(1R)-1-[(4-chloro-1,6-dimethyl-1H-indol-2-yl)formamido]ethyl]benzenesulfonyl}-4-methoxybutanoic acid]	21	–
CCC(C(=O)O)S(=O)(=O)c1ccc([C@@H](C)NC(=O)c2cc3c(Cl)cc(C)cc3n2C)cc1 (stereo partly drawn) [Example 07-011, 2-{4-[(1R)-1-[(4-chloro-1,6-dimethyl-1H-indol-2-yl)formamido]ethyl]benzenesulfonyl}butanoic acid]	11	–
Cc1cc(Cl)c2cc(C(=O)N[C@H](C)c3ccc(S(=O)(=O)C4(C(=O)O)CC4)cc3)n(C)c2c1 [Example 07-013, 1-{4-[(1R)-1-[(4-chloro-1,6-dimethyl-1H-indol-2-yl)formamido]ethyl]benzenesulfonyl}cyclopropane-1-carboxylic acid]	10	15
Cc1cc2c(cc(C(=O)N[C@H](CO)c3ccc(S(=O)(=O)C(C)(C)C(=O)O)cc3)n2C)c(Cl)c1Cl [Example 07-014, 2-{4-[(1S)-1-[(4,5-dichloro-1,6-dimethyl-1H-indol-2-yl)formamido]-2-hydroxyethyl]benzenesulfonyl}-2-methylpropanoic acid]	4	6
Cc1cc2c(cc(C(=O)N[C@H](C)c3ccc(S(=O)(=O)C(C)(C)C(=O)O)cc3)n2C)c(Cl)c1Cl [Example 07-015, 2-{4-[(1R)-1-[(4,5-dichloro-1,6-dimethyl-1H-indol-2-yl)formamido]ethyl]benzenesulfonyl}-2-methylpropanoic acid]	5	9
CC(=O)N1CCC(C(=O)O)(S(=O)(=O)c2ccc([C@@H](C)NC(=O)c3cc4c(Cl)c(Cl)c(C)cc4n3C)cc2)CC1 [Example 07-016, 1-acetyl-4-{4-[(1R)-1-[(4,5-dichloro-1,6-dimethyl-1H-indol-2-yl)formamido]ethyl]benzenesulfonyl}piperidine-4-carboxylic acid]	–	21
C[C@@H](NC(=O)c1cc(-c2ccc(F)cc2)nn1C)c1ccc(S(=O)(=O)C(C)(C)C(=O)O)cc1 [Example 08-001, 2-{4-[(1R)-1-{[3-(4-fluorophenyl)-1-methyl-1H-pyrazol-5-yl]formamido}ethyl]benzenesulfonyl}-2-methylpropanoic acid]	161	–
C[C@@H](NC(=O)c1cc(-c2ccc(F)cc2)nn1C)c1ccc(S(=O)(=O)C2(C(=O)O)CCCC2)cc1 [Example 08-002, 1-{4-[(1R)-1-{[3-(4-fluorophenyl)-1-methyl-1H-pyrazol-5-yl]formamido}ethyl]benzenesulfonyl}cyclopentane-1-carboxylic acid]	74	95
C[C@@H](NC(=O)c1cc(-c2ccc(F)cc2)nn1C)c1ccc(S(=O)(=O)C2(C(=O)O)CCOCC2)cc1 [Example 08-003, 4-{4-[(1R)-1-{[3-(4-fluorophenyl)-1-methyl-1H-pyrazol-5-yl]formamido}ethyl]benzenesulfonyl}oxane-4-carboxylic acid]	139	–
COCCOC(=O)CS(=O)(=O)c1ccc([C@@H](C)NC(=O)c2cc3cc(C(F)(F)F)ccc3n2C)cc1 [Example 09-008, 2-methoxyethyl 2-{4-[(1R)-1-{[1-methyl-5-(trifluoromethyl)-1H-indol-2-yl]formamido}ethyl]benzenesulfonyl}acetate]	3460	–
CCCCOC(=O)CS(=O)(=O)c1ccc([C@@H](C)NC(=O)c2cc3c(Cl)cc(C)cc3n2C)cc1 [Example 09-009, butyl 2-{4-[(1R)-1-[(4-chloro-1,6-dimethyl-1H-indol-2-yl)formamido]ethyl]benzenesulfonyl}acetate]	3740	–
Cc1cc(Cl)c2cc(C(=O)N[C@H](C)c3ccc(S(=O)(=O)CC(=O)OCc4ccncc4)cc3)n(C)c2c1 [Example 09-010, pyridin-4-ylmethyl 2-{4-[(1R)-1-[(4-chloro-1,6-dimethyl-1H-indol-2-yl)formamido]ethyl]benzenesulfonyl}acetate]	175	–
Cc1cc(Cl)c2cc(C(=O)N[C@H](C)c3ccc(S(=O)(=O)CC(=O)OCC(COC(=O)C(C)(C)C)COC(=O)C(C)(C)C)cc3)n(C)c2c1 [Example 09-015, 2-{[(2-{4-[(1R)-1-[(4-chloro-1,6-dimethyl-1H-indol-2-yl)formamido]ethyl]benzenesulfonyl}acetyl)oxy]methyl}-3-[(2,2-dimethylpropanoyl)oxy]propyl 2,2-dimethylpropanoate]	9190	–
Cc1cc(Cl)c2cc(C(=O)N[C@H](C)c3ccc(S(=O)(=O)CC(=O)OCC4CC4)cc3)n(C)c2c1 [Example 09-016, cyclopropylmethyl 2-{4-[(1R)-1-[(4-chloro-1,6-dimethyl-1H-indol-2-yl)formamido]ethyl]benzenesulfonyl}acetate]	2100	–

— patent US11304929B2, “Tosylacetate based compounds and derivatives thereof as PHGDH inhibitors” (priority 2017, dated 2022)
